From patent publication US20120065187A1 (ALCON RESEARCH, LTD, priority 2008, published 2012)

Legend:
[1] = target: T1, human H4 (Homo sapiens, UniProt Q9H3N8); assay: In vitro histamine receptor cell-based assay (aequorin bioluminescence), H4 antagonism; conditions: CHO-K1 cells expressing human H4, aequorin and Gα16; histamine at EC80; read-out: H4 Antagonist EC50
T1 construct: host or cells: CHO-K1
How it was run: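 CHO-K1 cells stably expressing human H4, Gα16 and mitochondrial aequorin, loaded with 5 μM coelenterazine-h, preincubated 15 min at room temperature with compound, then challenged with histamine at EC80.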

[2] = target: T2, human H1 (Homo sapiens, UniProt P35367); assay: In vitro histamine receptor cell-based assay (aequorin bioluminescence), H1 antagonism; conditions: CHO-K1 cells expressing human H1 and aequorin; histamine at EC80; read-out: H1 Antagonist EC50
T2 construct: host or cells: CHO-K1
How it was run: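 Stable CHO-K1 lines expressing human H1 or H4 (H4 with Gα16) plus mitochondrial aequorin, loaded 4 h with 5 μM coelenterazine-h at ~21 °C. Compounds preincubated 15 min, then histamine at EC80 added; bioluminescence decrease (AUC or max–min) expressed as % of positive control (diphenhydramine for H1, JNJ7777120 for H4, 10 μM).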

[3] = tested on: Hartley VAF outbred guinea pigs; assay: Allergic conjunctivitis in passively sensitized guinea pigs (conjunctival EPO activity); assay type: in vivo; design: key: +: a ≦0.1% qd dose was statistically equivalent to dexamethasone with respect to reduction of EPO activity; −: the compound was statistically inferior to dexamethasone and not different than vehicle; conditions: ≦0.1% qd topical, 1 hour prior to ovalbumin challenge; reduction of conjunctival EPO activity vs dexamethasone
Experimental: Male Hartley VAF outbred guinea pigs were passively sensitized to ovalbumin by a single OD subconjunctival injection of undiluted guinea pig anti-ovalbumin antiserum 24 hours before OD topical challenge with 500 μg ovalbumin in saline. Control animals were injected with saline only and challenged with ovalbumin. To determine acute phase drug efficacy, 30 min after challenge animals were clinically scored by a masked observer for severity of signs of conjunctivitis based on a standard scale. Test compounds were administered topically 1 hour prior to challenge (QD protocol), or 1 hour prior to challenge and again 8 hours after challenge (BID protocol). Twenty-four hours after challenge, animals were euthanized and conjunctivae were harvested for determination of tissue eosinophil peroxidase (EPO) concentration as a marker of allergic inflammation. Homogenates of freshly collected tissues were prepared by shaking the tissues in 2 mL round-bottom tubes containing 0.5 mL of homogenization buffer (50 mM Tris HCl, pH 8.0, 6 mM KBr) and one 5-mm stainless steel bead on a Qiagen TissueLyser at 30 Hz for 5 min. Homogenates were frozen and thawed once, then centrifuged at 10,000 rpm for 5 min. EPO activity in supernatants was measured by reacting diluted homogenates with a solution of 6 mM o-phenylenediamine substrate and 8.8 mM H2O2 in homogenization buffer for 3 min. The reaction was stopped with 4M H2SO4 and absorbances were measured at […] on a spectrophotometric plate reader. Total EPO in samples was calculated from a standard curve of recombinant human EPO in each assay. EPO activity was normalized to total protein concentration (Pierce BCA assay) in supernatants. Background EPO activity was determined from the unsensitized, antigen-challenged control group. Percent inhibition was calculated from the sensitized, antigen-challenged, vehicle-treated control group in each experiment. Ovalbumin-injected animals dosed topically with 0.1% w/v dexamethasone (dex) served as positive control. Groups were compared by ANOVA with Dunnett's or Tukey's post-hoc tests where appropriate with significance assigned at the 95% confidence level.
The table below summarizes the results.

T2 sequence (P35367 whole entry): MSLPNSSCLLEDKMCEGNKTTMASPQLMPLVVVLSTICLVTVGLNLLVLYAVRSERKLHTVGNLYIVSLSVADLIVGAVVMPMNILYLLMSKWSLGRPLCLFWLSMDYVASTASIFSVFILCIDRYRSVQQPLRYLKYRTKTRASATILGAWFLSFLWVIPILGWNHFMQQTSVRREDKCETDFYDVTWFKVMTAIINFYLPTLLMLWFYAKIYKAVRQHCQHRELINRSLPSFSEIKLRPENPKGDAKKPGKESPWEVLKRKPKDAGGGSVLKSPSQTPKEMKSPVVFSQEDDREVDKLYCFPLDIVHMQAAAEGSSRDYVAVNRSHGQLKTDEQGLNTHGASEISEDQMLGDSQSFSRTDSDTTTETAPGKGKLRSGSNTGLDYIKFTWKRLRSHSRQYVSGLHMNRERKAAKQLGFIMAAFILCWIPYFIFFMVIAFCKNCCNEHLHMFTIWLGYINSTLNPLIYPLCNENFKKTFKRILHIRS

EC50 [1] [µM] | EC50 [2] [µM] | Compound | QD activity [3]
< 10 | > 10 | CN1CCN(c2nc3ccc(Cl)cc3n3cnnc23)CC1 [Example 55, 8-chloro-4-(4-methylpiperazin-1-yl)-[1,2,4]triazolo[4,3-a]quinoxaline] | +
< 10 | > 10 | Clc1ccc2nc(N3CCNCC3)c3nncn3c2c1 [Example 57, 8-chloro-4-(piperazin-1-yl)-[1,2,4]triazolo[4,3-a]quinoxaline] | +
